Common to all, as to assay: Microtiter plate laser nephelometry (MLN) growth test
Holding throughout (type): cell-based

For test [1], the system named is Candida albicans DSM 1386. The following applies: for IC50: DSM1386, C. albicans (yeast), SGB, 37 °C, 48 h, growth as area under curve vs untreated control; for MIC: DSM1386, C. albicans, plating of wells without visible growth in the MLN-test. As for the experimental part:
(§1) To allow a reasonable comparison between antimycotic drugs, the concentrations to be used in the following tests was determined first. Thus, the antimycotic effect was determined by microtiter plate laser nephelometry (MLN).
(§2) MLN is a direct method for measuring light, which is scattered by particles suspended in a solution in angles of up to 90 degree. With this technique, already minor particle concentrations can be determined in a suspension. Thus, this method provides a higher sensitivity than usual transmission readers, which detect the reduction of the intensity of light passing a suspension. Further, it is a very reliable technique for application in a 96-well format. It can be used to monitor the growth of microorganisms by the turbidity of the respective medium and to examine the effect of antimicrobial substances on the growth of microorganisms. Compared to other applied methods, MLN allows high throughput screenings, incubation over a long time and in situ monitoring of changes in the dose-response-curves.
(§3) Moreover, in most techniques, the minimum inhibitory concentration (MIC) can only be determined afterwards, whereas MLN allows the in situ acquisition of dose-response-curves and the simultaneous monitoring of changes in the IC50.
(§4) Candida albicans DSM 1386, Candida parapsilosis DSM 5784, Trichophyton rubrum DSM 16111,Trichophyton interdigitale IHEM 22939, Trichophyton soudanense DSM 103786, and Trichophyton mentagrophytes DSM 107608 were obtained from the DSMZ (German Collection of Microorganisms and Cell Cultures; Deutsche Sammlung von Mikroorganismen und Zellkulturen). Epidermophyton floccosum and Scorpolariopsis brevicaulis were obtained from a round robin test.
(§5) The yeasts were cultivated in Sabouraud-Glucose-Bouillon (SGB; Merck) for 24 h at 37°C at aerobic conditions. Dermatophytes were cultivated on Dermasel-Agarplates (Oxoid) for 3 weeks and subsequently treated with 5 mL sterile, physiological saline solution (Lot 14HD24, Fresenius Kabi Deutschland GmbH) for detaching the spores. The spore suspensions were transferred into sterile 50-ml-tubes (Greiner Bio-One), vortexed for 20 s and separated by cell sieves (40 µm, Greiner Bio-One). Subsequently, the spore number was determined via Neubauer-improved counting chambers and the spore suspension was adjusted to approximately 2 × 10^3/ml in SBG (Merck) for the MLN-experiments.
(§6) Solutions of sertaconazol, ciclopiroxolamin and terbinafin were prepared as 10 µg/µL DMSO (Sigma-Aldrich). The respective test concentrations were then obtained by diluting these solutions in SGB (Merck).
(§7) The MLN-test was then performed according to NCCLS M27-A2 and DIN EN 27027 as previously described (Burmester A, Hipler UC, Uhrlaß S, Nenoff P, Singal A, Verma SB, Elsner P, Wiegand C. Indian Trichophyton mentagrophytes squalene epoxidase erg1 double mutants show high proportion of combined fluconazole and terbinafine resistance. Mycoses. 2020; doi: 10.111 1/myc.13150). […] of the respective dilutions of sertaconazol, ciclopiroxolamin or terbinafin were added to the respective wells of a sterile, clear 96-well microplate (Greiner Bio-One) in quadruplicates together with 100 µL of the microorganism suspensions (as above). Blanks for each analysed substance concentration were added to each assay. The microtiter plates were sealed with a transparent foil (Greiner Bio-One). To allow the gas exchange, a perforation was applied to the right edge of the respective wells. The microtiter plates were then inserted in the microtiter plate laser nephelometer (NEPH-ELOstar Galaxy, BMG Labtech) and incubated at 37 °C while shaking for 48 h (yeasts) or, respectively, 120 h (mold, dermatophytes). For determining the growth of the microorganisms, the turbidity of each analysed substrate concentration was assigned to the incubation time. Subsequently, the area under curve was determined by the results and calculated as percentage of the untreated control (growth [%]). […]

Test [2] has as its system Candida parapsilosis DSM 5784. The following applies: Lodderomyces parapsilosis, DSM5784; for IC50: C. parapsilosis (yeast), SGB, 37 °C, 48 h, growth as area under curve vs untreated control; for MIC: C. parapsilosis, plating of wells without visible growth in the MLN-test. As for the experimental part: as §1, §2, §3, §4, §5, §6, §7
The subject of a further test is Epidermophyton floccosum. Conditions: E. floccosum; for MIC: plating of wells without visible growth in the MLN-test; for IC50: spore suspension in SGB, 37 °C, 120 h, growth as area under curve vs untreated control. As for the experimental part: as §1, §2, §3, §4, §5, §6, §7
A further test deals with S. brevicaulis. Conditions: Scopulariopsis brevicaulis; for IC50: S. brevicaulis (mold), SGB, 37 °C, 120 h, growth as area under curve vs untreated control; for MIC: S. brevicaulis, plating of wells without visible growth in the MLN-test. On the procedure:
as §1, §2, §3, §4, §5, §6, §7

Test [3] concerns Trichophyton interdigitale IHEM 22939. The following applies: IHEM22939, T. interdigitale; for MIC: plating of wells without visible growth in the MLN-test; for IC50: spore suspension in SGB, 37 °C, 120 h, growth as area under curve vs untreated control. As for the experimental part: as §1, §2, §3, §4, §5, §6, §7
The test system of test [4] is Trichophyton mentagrophytes DSM 107608. Conditions: DSM107608, T. mentagrophytes; for MIC: plating of wells without visible growth in the MLN-test; for IC50: spore suspension in SGB, 37 °C, 120 h, growth as area under curve vs untreated control. As for the experimental part:
as §1, §2, §3, §4, §5, §6, §7

The subject of test [5] is Trichophyton rubrum DSM 16111. Conditions: DSM16111, T. rubrum; for MIC: plating of wells without visible growth in the MLN-test; for IC50: spore suspension in SGB, 37 °C, 120 h, growth as area under curve vs untreated control. As for the experimental part:
as §1, §2, §3, §4, §5, §6, §7

The subject of test [6] is Trichophyton soudanense DSM 103786. Conditions: DSM103786, T. soudanense; for MIC: plating of wells without visible growth in the MLN-test; for IC50: spore suspension in SGB, 37 °C, 120 h, growth as area under curve vs untreated control. On the procedure: as §1, §2, §3, §4, §5, §6, §7

These results are taken from patent EP4129284B1, “SERTACONAZOL FOR PROVIDING A SPORISTATIC AND/OR SPORICIDAL EFFECT” (Dr. Pfleger Arzneimittel GmbH, priority 2021, dated 2023).

≈ marks a conversion by molar mass, not a printed value.

In the case of `Cc1cc(C2CCCCC2)n(O)c(=O)c1` [Ciclopiroxolamin, ciclopiroxolamin], the IC50 (usually the concentration that inhibits the measured activity by half) was determined as 4.01 ± 0.71 µg/mL (≈ 19.3 µM) in test [1]; 4.73 ± 0.09 µg/mL (≈ 22.8 µM) in test [2]; 1.46 ± 0.22 µg/mL (≈ 7.04 µM) with Epidermophyton floccosum; 4.85 ± 1.79 µg/mL (≈ 23.4 µM) in the test with S. brevicaulis; 2.62 ± 0.62 µg/mL (≈ 12.6 µM) in test [3]; 2.09 ± 0.78 µg/mL (≈ 10.1 µM) in test [4]. The IC50 turned out to be 1.02 ± 0.22 µg/mL (≈ 4.92 µM) in test [5] and 1.43 ± 0.78 µg/mL (≈ 6.9 µM) in test [6]. Besides, the MIC (commonly the smallest concentration in the dilution series that meets the test's criterion for growth inhibition) in test [1] was 40 µg/mL (≈ 193 µM); in test [2], 80 µg/mL (≈ 386 µM); with Epidermophyton floccosum, 7.5 µg/mL (≈ 36.2 µM); against S. brevicaulis, 60 µg/mL (≈ 289 µM); in test [3], 10 µg/mL (≈ 48.2 µM); in test [4] it was 10 µg/mL (≈ 48.2 µM). Moreover, the values for the MIC in test [5] and in test [6] were 10 µg/mL (≈ 48.2 µM) and 5.5 µg/mL (≈ 26.5 µM), respectively.

In the case of `Clc1ccc(C(Cn2ccnc2)OCc2csc3c(Cl)cccc23)c(Cl)c1` (centres unmarked) [Sertaconazol, sertaconazol], the half-inhibitory concentration (IC50) in test [1] worked out at 0.54 ± 0.12 µg/mL (≈ 1.23 µM); in test [2] it was 0.0025 ± 0.0001 µg/mL (≈ 0.00571 µM); in the test on Epidermophyton floccosum, 0.022 ± 0.003 µg/mL (≈ 0.0503 µM); in the test on S. brevicaulis, 0.11 ± 0.03 µg/mL (≈ 0.251 µM); in test [3], 0.39 ± 0.01 µg/mL (≈ 0.891 µM); in test [4] it was 0.018 ± 0.003 µg/mL (≈ 0.0411 µM). The values for the IC50 in test [5] and in test [6] were 0.0028 ± 0.0003 µg/mL (≈ 0.0064 µM) and 0.0014 ± 0.0001 µg/mL (≈ 0.0032 µM), respectively. Moreover, the MIC in test [1] is 40 µg/mL (≈ 91.4 µM); in test [2] it was 20 µg/mL (≈ 45.7 µM); with Epidermophyton floccosum it was 1.6 µg/mL (≈ 3.65 µM); with S. brevicaulis, 7.5 µg/mL (≈ 17.1 µM); in test [3] it was 12.5 µg/mL (≈ 28.6 µM); in test [4], 3.8 µg/mL (≈ 8.68 µM). Moreover, the minimal inhibitory concentration (MIC) in test [5] worked out at 1.3 µg/mL (≈ 2.97 µM); in test [6], 3.1 µg/mL (≈ 7.08 µM).

Take `CN(C/C=C/C#CC(C)(C)C)Cc1cccc2ccccc12` [Terbinafin, terbinafin]: the IC50 in test [1] stood at 24.2 ± 2.99 µg/mL (≈ 82.9 µM); in test [2], 0.098 ± 0.002 µg/mL (≈ 0.336 µM); in the test with Epidermophyton floccosum, 0.0021 ± 0.0001 µg/mL (≈ 0.00721 µM); in the test on S. brevicaulis, 0.69 ± 0.03 µg/mL (≈ 2.37 µM); in test [3], 0.0038 ± 0.0008 µg/mL (≈ 0.013 µM); in test [4] it was 4.66 ± 0.04 µg/mL (≈ 16 µM). Further, the concentration for half-maximal inhibition (IC50) is 0.0015 ± 0.0002 µg/mL (≈ 0.00515 µM) in test [5] and 0.0016 ± 0.0005 µg/mL (≈ 0.00549 µM) in test [6]. In addition, the MIC in test [2] was 3.8 µg/mL (≈ 13 µM); with Epidermophyton floccosum, 0.02 µg/mL (≈ 0.0686 µM); with S. brevicaulis, 40 µg/mL (≈ 137 µM); in test [3], 0.02 µg/mL (≈ 0.0686 µM); in test [4], 20 µg/mL (≈ 68.6 µM); in test [5], 0.006 µg/mL (≈ 0.0206 µM). Further, in test [6], 0.015 µg/mL (≈ 0.0515 µM) was the least that counted as inhibitory (MIC).
